Experimental findings from a melting point compilation (Tetko et al.; mined from patent text by program, amines drawn as free bases though some values may be those of a salt) are described below.

Residues, ends and D or L forms follow the SMILES beside them. *: point of attachment. Boc = CC(C)(C)OC(=O)*; Bn = c1ccc(C*)cc1

`Cc1ccc(C(=O)N[C@@H](COC(C)(C)C)NC(=S)Nc2cccc([N+](=O)[O-])c2)cc1` displayed a melting point of 169 to 171 °C.

`COc1ccc(-c2c(Cl)c(CNC(=O)c3cccnc3)nc3sc4c(c23)CCN(Cc2ccccc2)C4)cc1OC`: the melting point lay in the range of 124 to 125 °C. In the case of `CC(C)(C)c1cc(CCc2ccccc2NC(=O)NC2CCCCCC2)cc(C(C)(C)C)c1O` it was 177 to 178 °C; in that of `CCCCn1ccc(-c2ccc(Oc3ccnc(C)c3)c(F)c2)c(C#N)c1=O`, 125 °C; in that of `CN(Cc1ccc(N)cc1)C1CCSCC1`, 88 to 89 °C. Turning to `CCOC(=O)c1cn(CC)c2occc2c1=O`, the melting point fell in the range of 158 to 160 °C. Consider `CC(C)(C)NC(=O)C1CCC2C3CC=C4C=C(C#N)CCC4(C)C3CCC12C` (stereo not given), for which the melting point fell in the range of 198 to 200 °C. As for `CCCOc1ccc(S(=O)(=O)N2CCN(CCO)CC2)cc1C(=O)OC`, the melting point is 88 to 89 °C.

In turn, `COc1ccccc1N1CCN(CCN(C(=O)C2CCCCC2)c2ccccc2[N+](=O)[O-])CC1` came in with a melting point of 119 to 121 °C. The molecule `CCOC(=O)NN=C(CO)c1cccc(Cl)c1` had a melting point of 109 to 110 °C. The result for `CCc1cccc(C(C)C)c1NC(=O)NCC1(c2ccccc2)CCCCC1` reads 178 to 180 °C; that for `CC(C)n1c(=O)oc2cc([N+](=O)[O-])cc(F)c21`, 122 to 123 °C. The result for `CN1CC(=O)OC2CCN(C(=O)c3ccc(NC(=O)c4ccccc4Cl)cc3)c3ccccc3C21` (stereo not given) reads 286 to 290 °C.

With `CC(=O)Nc1cc2c(cc1[N+](=O)[O-])OC(C)(C)C1OC21` (stereo not given), the melting point lay within 156 to 158 °C.

Molecule `N#Cc1c(-c2ccc(Cl)c(Cl)c2)cc(C2CC2)nc1Cl` came in with a melting point of 158 to 160 °C. The result for `O=C(c1ccc(C2CCCCC2)cc1)N1Cc2ccccc2Nc2ccccc21` reads 175 to 176 °C; that for `COc1cc(N2CCC(N3CCOCC3)C2)ccc1Nc1ncc2ccc(-c3ccccc3OC)n2n1` (stereo not given), 80 to 87 °C. In the case of `CC(C)(C)c1ccc2c(c1O)C(=O)c1c(O)cccc1C2` it was 126 to 127 °C; in that of `CC(=O)NN=Cc1ccc2ccccc2n1`, 218 to 219 °C; in that of `COc1cccc(SSc2cccc(OC)c2S(=O)(=O)NC(C)(C)C)c1S(=O)(=O)NC(C)(C)C`, 275 °C. In the case of `C=CCOc1ccccc1S(=O)(=O)NC(=O)Nc1nc(C)nc(OC)n1` it was 146 to 147 °C. `OCCn1cnc2c(O)nc3ccccc3c21` gave a melting point of more than 300 °C. In the case of `COc1cccc2c(OCc3ccc(C(C)C)cc3)ccc(C=NNC(=O)c3ccc(O)c(Cl)c3)c12` it was more than 250 °C; in that of `Cc1cc2[nH]c3ccncc3c(=O)n2n1`, more than 300 °C. The result for `CC(C)(c1cc(Cl)ccc1O)c1cc(Cl)ccc1O` reads 142 °C; that for `CC1(C)COc2cc(C(F)(F)F)ccc2C(O)(c2ccccn2)C1` (stereo not given), 78 °C.

For `O=C(O)/C=C/C(=O)/C=C/c1ccc(C(F)(F)F)cc1`, the melting point lay within 192 to 195 °C. In the case of `Oc1cccc(NCCc2ccccn2)c1` it was 118 to 120 °C; in that of `N#CC(c1ccc([N+](=O)[O-])cc1)c1ccccn1` (racemic), 97 to 99 °C; in that of `CCOC(=O)Cn1ccc2ccc3c(c21)CCN(C(=O)OC(C)(C)C)CC3`, 111 to 115 °C. In the case of `COc1ccc(CNC(=O)N2CCN(c3ncnc4cc(OC)c(OC)cc34)CC2)cc1` it was 147 to 148 °C; in that of `Cc1ccc(C2(O)CCC(=O)N2C)cc1S(N)(=O)=O` (stereo not given), 124 °C. The result for `COCOCC(=O)C1CCC2C3CCC4=CC(=O)CCC4(C)C3CCC12C` (stereo not given) reads 195 °C; that for `Cc1ccc2c(c1)[nH]c(=O)n2CCCl`, 120 °C; that for `CCCCN1C(N)=NS(=O)(=O)N=C1Oc1cccc(C)c1`, 208 to 213 °C. The molecule `NC(=O)c1cc2c(cc1OCC1CCCCC1)OCCCC2=O` registered a melting point of 185 to 186 °C. The result for `COc1ccc(F)c(CC2CCN([C@H]3CC[C@H](c4ccc5c(c4)OCO5)CC3)CC2)c1` reads 89 to 91 °C.

Regarding `COc1cccc2c1CCC(C=O)C2=O` (stereo not given), the melting point was 68 to 70 °C. In the case of `C=CCc1c(-c2cc(=O)c3c(O)c(CC=C)c(O)c(CC=C)c3o2)ccc(OC)c1O` it was 122 to 123 °C; in that of `COc1ccc(C(=O)c2c(C)n(C)c(=O)n2C)cc1`, 109 to 111 °C; in that of `CCCCCCCCCCCCCCOc1ccc(O)c(C(=O)OC)c1`, 49 to 53 °C. `CCCN1NC(c2ccccc2)C2=C1C(=Cc1ccccc1)CSC2` (stereo not given): the melting point was 106 to 118 °C. The result for `CCn1cc(C(=O)O)c(=O)c2cc(F)c(-c3csc(CNC)n3)c(O)c21` reads 242 to 246 °C. The result for `CCOP(=O)(OCC)C(O)[C@H](CC1CCCCC1)NC(=O)[C@H](CC(C)C)NC(=O)[C@H](Cc1ccccc1)NC(=O)OC(C)(C)C` (stereo not given in full) reads 173 to 175 °C; that for `Cc1c(S(C)=O)c(C#N)nn1-c1c(Cl)cc(C(F)(F)F)cc1Cl` (stereo not given), 109 to 115 °C; that for `CCCc1c(OCc2ccccc2C(=O)O)ccc(C(C)=O)c1O`, 214 to 216 °C.

Regarding `Clc1nc(-c2ccccc2)cc2ccccc12`, the melting point is 75 to 77 °C. The result for `Cc1cccc(C(=O)CC(=O)C2CCCCC2)c1O` reads 42 to 43 °C; that for `CC(C)n1nc(-c2c(NCc3ccco3)nc(N)nc2-c2ccccc2)ccc1=O`, 213 to 214 °C.

Turning to `CCOP(=O)(OCC)c1cc2c(c(C)c1-c1c(OC)ccc3ccccc13)COC2`, the melting point lay within 136 to 138 °C.

`COc1ccc(-c2nc3sccn3c2/C=C/C(=O)c2ccc[nH]2)cc1` registered a melting point of 177 to 179 °C. In the case of `COc1cc(N2CCC(N3CCOCC3)CC2)ccc1Nc1ncc2ccc(-c3ccccc3S(C)(=O)=O)n2n1` it was 111 to 112 °C; in that of `COc1ccc(CNC(=O)c2cc3c(=O)n(CCC(=O)c4ccccc4)c(=O)n(C)c3s2)cc1`, 208 to 211 °C; in that of `O=c1c2ccccc2ncn1CCN1CC=C(c2c[nH]c3ccccc23)CC1`, 132 °C.

As to `CN(C(=O)OCc1ccccc1)c1ccc(OCC(=O)O)cc1`, the melting point is 96 to 97 °C. The result for `CCOC(=O)/C=C\n1c(=O)n2nc(C(=O)OCC)cc2c2ccc(Cl)cc21` reads 215 to 217 °C. In the case of `CC(=O)Nc1ccc(OCCOc2ccccc2)cc1[N+](=O)[O-]` it was 104 to 106 °C. In the case of `NC(=O)NC(=O)c1coc2ccccc2c1=O` it was 200 to 217 °C.

Turning to `COc1ccc(S(=O)(=O)C2(C(=O)NO)CCN(Cc3ccccc3)CC2)cc1`, the melting point is 90 to 95 °C. The result for `CN(C)CCOc1ccc2nc(C#N)nc(NC3CCCC3)c2c1` reads 158 to 160 °C. The result for `COC[C@]12CCC(=O)C=C1CC[C@@H]1[C@@H]2CC[C@]2(C)[C@@H](C(=O)CO)CC[C@@H]12` reads 148 to 149 °C; that for `CC(F)(C(=O)O)c1ccc(OS(=O)(=O)C(F)(F)F)cc1` (stereo not given), 91 to 94 °C. The result for `COc1cn(-c2ccc(-c3cnn(C(F)F)c3)cc2F)nc(-c2ccnn2-c2ccccc2)c1=O` reads 185 to 187 °C; that for `CC(=NOCCO)c1ccc(-c2ccc(C)cc2)cc1`, 142 to 144 °C.

With `O=C(CCc1ccccc1[N+](=O)[O-])c1c(O)c2cccnc2n(-c2ccccc2)c1=O`, the melting point lay within 238 to 240 °C. In the case of `COc1ccccc1N1CCN(CCn2cnc3sc4c(c3c2=O)CCN(C(C)=O)C4)CC1` it was 170 to 172 °C.

Molecule `CS(=O)(=O)Nc1ccc(C2CCN(c3ccncc3)CC2)cc1` came in with a melting point of 269 to 271 °C. The result for `O=C1NC(=O)C(Nc2ccc3ccccc3c2)S1` (stereo not given) reads 200 to 201 °C; that for `CC(C(=O)N1c2ccccc2C(=O)Nc2cccnc21)N1CCN(C)CC1` (stereo not given), 223 to 224 °C; that for `O=C(C(=O)N1CCN(c2cccc3[nH]ccc23)CC1)c1c[nH]c2cc(Cl)ccc12`, 229 to 231 °C.

Molecule `CC(C)c1cccc(C(C)C)c1NC(=O)Cc1c(-c2ccccc2)c2cc(Cl)ccc2n1C` came in with a melting point of 279 to 280 °C.

The molecule `CCOC(=O)C(C)(C)Oc1ccc(-c2ccc(CCNC(=O)c3ccc(F)cc3)cc2)cc1` showed a melting point of 135 °C.

In the case of `CC(Oc1ccc(-c2cc(C(F)(F)F)cc(S(N)(=O)=O)c2)cc1)C(O)CCc1cccnc1` (stereo not given), the melting point was in the range of 57 to 59 °C. The result for `CC1(C)CCCC1CNC(=O)C=Cc1ccc(C(=O)O)cc1` (stereo not given) reads 138 to 140 °C; that for `COCCNC(=O)c1ccc(C)c(-n2c(C)cc(OCc3ccccc3CNC(=O)Nc3cc(C(C)(C)C)nn3-c3ccc(O)c(Cl)c3)c(Cl)c2=O)c1`, 179 to 180 °C; that for `CCOCCOC(=O)C1=C(C)NC(C#N)=C(C(=O)OCC)C1c1cccc([N+](=O)[O-])c1` (stereo not given), 89 to 91 °C. In the case of `COC(=O)C(Cc1ccc(OCc2ccccc2)cc1)NC(=O)C(COCc1ccccc1)NC(=O)C(Cc1c[nH]c2ccccc12)NC(=O)OC(C)(C)C` (stereo not drawn) (Boc-Trp-Ser(Bn)-Tyr(Bn)-OMe; configuration not given here) it was 130 to 131 °C. For `COCN1c2cc(CCl)ccc2Sc2nccnc21`, the melting point is 125 to 126 °C.

Turning to `CCC(CC)Oc1cc(C)nc(Nc2c(C)cc(C)cc2C)c1C#N`, the melting point lay in the range of 105 to 107 °C. In the case of `CCCCc1oc2ccccc2c1C(=O)NCc1ccc2c(-c3ccc(C)cc3)c(OCc3nnn[nH]3)ccc2c1` it was 162 to 166 °C; in that of `O=[N+]([O-])c1nccn1C1CCCO1` (stereo not given), 91 °C. In the case of `OC(CNc1ncnc2nc[nH]c12)CN1CCN(C(c2ccc(F)cc2)c2ccc(F)cc2)CC1` (stereo not given) it was 140 to 170 °C. In the case of `C=C1c2cccc(NC(=O)c3c(Cl)cccc3Cl)c2OC1(C)OC` (stereo not given) it was 208 to 210 °C; in that of `N#Cc1nc(Cl)c(-c2c(F)cccc2Cl)c(Cl)c1Br`, 90 °C; in that of `CC(=Cc1ccc2ccccc2c1)c1ccc(C(=O)O)cc1`, 238 °C.

What is called melting point is the temperature, or range, at which the solid turns liquid.
